# Data published in patent US7635572B2, “Methods for conducting assays for enzyme activity on protein microarrays” (Life Technologies Corporation, priority 2004, dated 2009).
# Where two headings read alike, the source gives them in different places.
# Experiments:
# Test in all cases: Further analysis of a plurality of inhibitors and a plurality of kinases on microarray (Example IX, Table 5);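 note: inhibition of each kinase by the inhibitors is given as a qualitative level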;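 for Inhibition level, DYRK1A: level 0 none or unclear Level 1 marginal Level 2 substantial inhibition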;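 for Inhibition level, Homo sapiens in: level 0 none or unclear Level 1 marginal Level 2 substantial inhibition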;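 for Inhibition level, Homo sapiens, o: level 0 none or unclear Level 1 marginal Level 2 substantial inhibition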;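 for Inhibition level, MAP4K3: level 0 none or unclear then 1 little or marginal then 2 substantial inhibition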;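 for Inhibition level, PIM1: level 0 no or unclear inhibition to Level 2 substantial inhibition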
# Type in all cases: biochemical
# [1] = biological target: plurality of kinases (Table 5) (Homo sapiens, UniProt P07949); conditions: plate B7
# [2] = tested on: plurality of kinases (Table 5); conditions: for Inhibition level, Homo sapiens c: plate F4; for Inhibition level, Homo sapiens, o: plate F5; for Inhibition level, Homo sapiens, B: plate F7; for Inhibition level, Homo sapiens in: plate F9; for Inhibition level, Homo sapiens p: plate F10
# [3] = biological target: T1, plurality of kinases (Table 5) (Homo sapiens, UniProt Q9Y616); conditions: plate C9; inhibitor 100 uM
# T1 sequence (Q9Y616 1-596): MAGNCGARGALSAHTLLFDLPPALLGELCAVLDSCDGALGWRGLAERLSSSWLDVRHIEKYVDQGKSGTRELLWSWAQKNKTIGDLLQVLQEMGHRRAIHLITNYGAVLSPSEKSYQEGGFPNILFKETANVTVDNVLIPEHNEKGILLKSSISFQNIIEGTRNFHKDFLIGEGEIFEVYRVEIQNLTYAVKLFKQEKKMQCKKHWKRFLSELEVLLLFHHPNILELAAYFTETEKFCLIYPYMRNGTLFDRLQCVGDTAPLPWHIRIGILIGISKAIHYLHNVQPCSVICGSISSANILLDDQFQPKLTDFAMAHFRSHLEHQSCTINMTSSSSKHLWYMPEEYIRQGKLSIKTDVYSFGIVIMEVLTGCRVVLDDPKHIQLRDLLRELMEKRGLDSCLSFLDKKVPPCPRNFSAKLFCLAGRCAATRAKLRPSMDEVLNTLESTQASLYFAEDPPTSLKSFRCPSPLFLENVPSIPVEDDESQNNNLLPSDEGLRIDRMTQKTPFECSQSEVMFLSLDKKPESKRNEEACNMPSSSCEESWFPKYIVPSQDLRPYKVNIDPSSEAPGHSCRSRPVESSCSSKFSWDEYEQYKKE
# [4] = biological target: plurality of kinases (Table 5) (Homo sapiens, UniProt P11309)
# [5] = biological target: T2, plurality of kinases (Table 5) (Homo sapiens, UniProt Q8IVH8); conditions: plate C5; inhibitor 100 uM
# T2 sequence (Q8IVH8 1-894): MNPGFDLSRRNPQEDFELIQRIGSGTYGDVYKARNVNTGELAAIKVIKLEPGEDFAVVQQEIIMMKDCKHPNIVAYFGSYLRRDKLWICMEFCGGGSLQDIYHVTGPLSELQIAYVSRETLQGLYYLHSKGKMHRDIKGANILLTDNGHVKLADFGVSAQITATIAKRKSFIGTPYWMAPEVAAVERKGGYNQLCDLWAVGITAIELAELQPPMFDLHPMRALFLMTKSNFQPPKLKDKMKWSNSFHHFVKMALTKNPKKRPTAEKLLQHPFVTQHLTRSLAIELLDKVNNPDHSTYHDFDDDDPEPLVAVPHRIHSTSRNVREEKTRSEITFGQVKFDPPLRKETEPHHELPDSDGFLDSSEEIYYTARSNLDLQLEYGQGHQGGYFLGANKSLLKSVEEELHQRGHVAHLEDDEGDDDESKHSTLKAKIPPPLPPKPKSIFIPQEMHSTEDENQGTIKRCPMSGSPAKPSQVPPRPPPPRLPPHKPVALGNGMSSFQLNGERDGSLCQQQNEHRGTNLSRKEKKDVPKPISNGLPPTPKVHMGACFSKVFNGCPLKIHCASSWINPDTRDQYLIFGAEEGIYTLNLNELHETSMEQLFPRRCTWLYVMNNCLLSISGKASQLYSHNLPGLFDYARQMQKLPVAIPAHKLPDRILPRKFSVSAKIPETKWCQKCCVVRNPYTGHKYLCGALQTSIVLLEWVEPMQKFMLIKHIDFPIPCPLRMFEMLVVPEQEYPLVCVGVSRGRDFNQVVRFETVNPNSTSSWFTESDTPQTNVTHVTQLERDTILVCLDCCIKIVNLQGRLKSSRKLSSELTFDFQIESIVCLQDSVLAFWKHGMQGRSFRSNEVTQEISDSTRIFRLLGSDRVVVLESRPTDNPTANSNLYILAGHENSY
# [6] = biological target: T3, plurality of kinases (Table 5) (Homo sapiens, UniProt Q8IV63); conditions: plate C12
# T3 sequence (Q8IV63 1-474): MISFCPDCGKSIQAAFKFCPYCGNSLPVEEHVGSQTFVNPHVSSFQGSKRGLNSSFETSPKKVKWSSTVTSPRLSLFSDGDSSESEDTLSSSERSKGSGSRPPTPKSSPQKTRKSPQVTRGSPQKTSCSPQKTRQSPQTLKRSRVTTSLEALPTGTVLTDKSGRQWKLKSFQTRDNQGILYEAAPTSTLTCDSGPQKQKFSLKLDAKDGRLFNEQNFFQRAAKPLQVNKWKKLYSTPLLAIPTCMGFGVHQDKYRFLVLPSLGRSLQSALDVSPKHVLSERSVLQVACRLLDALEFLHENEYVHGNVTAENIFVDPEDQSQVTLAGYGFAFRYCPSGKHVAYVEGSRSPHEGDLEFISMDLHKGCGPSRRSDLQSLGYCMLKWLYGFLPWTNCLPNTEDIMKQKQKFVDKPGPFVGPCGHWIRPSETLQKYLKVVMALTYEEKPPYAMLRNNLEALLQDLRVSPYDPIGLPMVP
# [7] = biological target: plurality of kinases (Table 5) (Homo sapiens, UniProt Q13627); conditions: plate G6
# [8] = biological target: plurality of kinases (Table 5) (Homo sapiens, UniProt P09769); conditions: plate B10
# Chain of plurality of kinases (Table 5) (Homo sapiens, UniProt P09769) (P09769 whole entry): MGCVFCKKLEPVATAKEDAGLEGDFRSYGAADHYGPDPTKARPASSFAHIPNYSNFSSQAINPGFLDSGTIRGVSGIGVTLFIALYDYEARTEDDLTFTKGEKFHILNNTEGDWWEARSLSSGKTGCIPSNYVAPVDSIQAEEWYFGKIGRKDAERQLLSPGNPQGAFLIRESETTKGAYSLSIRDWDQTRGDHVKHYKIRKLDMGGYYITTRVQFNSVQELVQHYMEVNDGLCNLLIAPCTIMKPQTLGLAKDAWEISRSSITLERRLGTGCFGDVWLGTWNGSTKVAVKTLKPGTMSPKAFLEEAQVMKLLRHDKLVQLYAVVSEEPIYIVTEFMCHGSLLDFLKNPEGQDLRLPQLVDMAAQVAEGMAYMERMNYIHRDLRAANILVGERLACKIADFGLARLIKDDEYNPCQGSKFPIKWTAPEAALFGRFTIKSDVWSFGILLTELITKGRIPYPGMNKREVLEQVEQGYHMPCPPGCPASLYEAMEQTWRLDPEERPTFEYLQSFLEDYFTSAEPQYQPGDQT
# Chain of plurality of kinases (Table 5) (Homo sapiens, UniProt P11309) (P11309 whole entry): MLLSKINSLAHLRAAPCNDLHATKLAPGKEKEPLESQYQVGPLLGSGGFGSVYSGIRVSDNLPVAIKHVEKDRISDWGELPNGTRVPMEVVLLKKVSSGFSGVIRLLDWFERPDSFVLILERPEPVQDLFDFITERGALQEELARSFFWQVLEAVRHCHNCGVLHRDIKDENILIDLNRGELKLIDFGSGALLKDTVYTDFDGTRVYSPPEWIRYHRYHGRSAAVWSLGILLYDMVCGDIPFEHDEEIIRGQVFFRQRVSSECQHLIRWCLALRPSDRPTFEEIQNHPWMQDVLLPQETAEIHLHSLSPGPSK
# Chain of plurality of kinases (Table 5) (Homo sapiens, UniProt P07949) (P07949 29-1114): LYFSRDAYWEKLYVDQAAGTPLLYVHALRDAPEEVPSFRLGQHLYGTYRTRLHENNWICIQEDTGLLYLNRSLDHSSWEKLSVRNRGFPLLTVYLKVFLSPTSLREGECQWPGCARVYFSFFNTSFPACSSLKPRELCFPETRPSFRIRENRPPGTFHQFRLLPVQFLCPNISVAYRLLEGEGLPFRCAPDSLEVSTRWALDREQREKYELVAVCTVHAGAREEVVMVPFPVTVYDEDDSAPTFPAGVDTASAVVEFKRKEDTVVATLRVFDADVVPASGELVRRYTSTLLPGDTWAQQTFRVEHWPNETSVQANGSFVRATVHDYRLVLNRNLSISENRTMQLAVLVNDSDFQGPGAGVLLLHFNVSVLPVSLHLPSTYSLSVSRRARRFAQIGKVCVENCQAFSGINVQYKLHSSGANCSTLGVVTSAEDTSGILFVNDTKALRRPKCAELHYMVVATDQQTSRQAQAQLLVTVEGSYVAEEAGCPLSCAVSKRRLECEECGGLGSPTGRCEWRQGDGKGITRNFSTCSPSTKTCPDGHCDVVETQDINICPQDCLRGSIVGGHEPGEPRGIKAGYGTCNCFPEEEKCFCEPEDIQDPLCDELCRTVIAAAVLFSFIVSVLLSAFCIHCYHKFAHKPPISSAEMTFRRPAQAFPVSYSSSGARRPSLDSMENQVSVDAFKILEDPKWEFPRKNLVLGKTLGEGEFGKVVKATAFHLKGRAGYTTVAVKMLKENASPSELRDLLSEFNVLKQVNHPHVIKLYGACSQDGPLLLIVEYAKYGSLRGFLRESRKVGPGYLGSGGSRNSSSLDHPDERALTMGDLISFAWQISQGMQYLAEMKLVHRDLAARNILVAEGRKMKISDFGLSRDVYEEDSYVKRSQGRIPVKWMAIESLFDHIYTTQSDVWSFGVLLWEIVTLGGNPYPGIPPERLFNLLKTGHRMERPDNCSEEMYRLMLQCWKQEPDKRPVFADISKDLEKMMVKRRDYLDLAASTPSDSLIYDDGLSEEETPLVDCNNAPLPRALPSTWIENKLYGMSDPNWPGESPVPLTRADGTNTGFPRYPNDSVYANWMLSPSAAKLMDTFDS
SMILES,"Inhibition level, RET ([1]; inhibitor 100 uM)","Inhibition level, Homo sapiens, S ([2]; plate E9, inhibitor 100 uM)","Inhibition level, Homo sapiens, s ([2]; plate E11, inhibitor 100 uM)","Inhibition level, Homo sapiens, s ([2]; plate F3, inhibitor 100 uM)","Inhibition level, Homo sapiens c ([2]; inhibitor 100 uM)","Inhibition level, Homo sapiens, o ([2]; inhibitor 100 uM)","Inhibition level, Homo sapiens, S ([2]; plate F6, inhibitor 100 uM)","Inhibition level, Homo sapiens, B ([2]; inhibitor 100 uM)","Inhibition level, Homo sapiens, s ([2]; plate F8, inhibitor 100 uM)","Inhibition level, Homo sapiens in ([2]; inhibitor 100 uM)","Inhibition level, Homo sapiens p ([2]; inhibitor 100 uM)","Inhibition level, IRAK3 [3]","Inhibition level, PIM1 ([4]; plate C2, inhibitor 100 uM)","Inhibition level, MAP4K3 [5]","Inhibition level, LOC51231 ([6]; inhibitor 100 uM)","Inhibition level, DYRK1A ([7]; inhibitor 100 uM)","Inhibition level, FGR ([8]; inhibitor 100 uM)",further results
N#C/C(=C/c1ccc(O)c(O)c1)C(=O)NCc1ccccc1 [AG 490],2,0,2,0,2,2,0,2,0,1,2,0,2,1,0,2,2,–
COc1cc2ncnc(Nc3cccc(Cl)c3)c2cc1OC [AG 1478],2,0,2,2,2,2,1,2,0,2,2,2,1,2,0,0,2,–
O=c1c(-c2ccc(O)cc2)coc2cc(O)cc(O)c12 [Genistein],2,2,2,1,2,2,0,2,0,1,2,2,2,2,2,2,2,"Inhibition level, RET ([1]; Genistein, conc. not given): 0; Inhibition level, Homo sapiens, s ([2]; plate F3, Genistein, conc. not given): 0; Inhibition level, Homo sapiens, o ([2]; Genistein, conc. not given): 0; Inhibition level, Homo sapiens, S ([2]; plate F6, Genistein, conc. not given): 0; Inhibition level, Homo sapiens, B ([2]; Genistein, conc. not given): 0; Inhibition level, Homo sapiens, s ([2]; plate F8, Genistein, conc. not given): 0; Inhibition level, Homo sapiens in ([2]; Genistein, conc. not given): 0; Inhibition level, Homo sapiens p ([2]; Genistein, conc. not given): 2; Inhibition level, PIM1 ([4]; plate C2, Genistein <3.7 mM): 0; Inhibition level, LOC51231 ([6]; Genistein <3.7 mM): 0; Inhibition level, DYRK1A ([7]; Genistein <3.7 mM): 1; Inhibition level, FGR ([8]; Genistein, conc. not given): 2"
O=S(=O)(NCCNC/C=C/c1ccc(Br)cc1)c1cccc2cnccc12 [H-89],0,2,1,2,2,1,2,0,1,2,2,0,2,1,2,2,2,–
O=c1c(O)c(-c2ccc(O)c(O)c2)oc2cc(O)cc(O)c12 [Quercetin],–,–,–,–,–,–,–,–,–,–,–,0,–,1,0,–,2,–
CN[C@@H]1C[C@H]2O[C@@](C)([C@@H]1OC)n1c3ccccc3c3c4c(c5c6ccccc6n2c5c31)C(=O)NC4 [Staurosporine],–,–,–,–,–,–,–,–,–,–,–,–,–,–,–,–,–,"Inhibition level, PIM1 [4]: 2; Inhibition level, LOC51231 ([6]; Staurosporine 21.5 uM): 0; Inhibition level, FGR ([8]; Staurosporine, conc. not given): 2"
